In PubChem BioAssay (NCI):
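All cell lines were grown in 96-well plates and treated with compound for 48 hours. GI50 marks 50% less growth. TGI: total growth inhibition.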

Tests used:
Experiment in all cases: growth of human tumour cells (NCI), 48 h
EKVX NSCLC = tested on: EKVX NSCLC
HCT-116 colon = tested on: HCT-116 colon
MDA-MB-231 breast = tested on: MDA-MB-231 breast
NCI-H23 lung = tested on: NCI-H23 lung
OVCAR-8 ovarian = tested on: OVCAR-8 ovarian
SF-539 CNS = tested on: SF-539 CNS
SK-MEL-28 melanoma = tested on: SK-MEL-28 melanoma
SW-620 colon = tested on: SW-620 colon
U251 CNS = tested on: U251 CNS
UACC-257 melanoma = tested on: UACC-257 melanoma
BT-549 breast = tested on: BT-549 breast

SMILES | TGI (EKVX NSCLC) [µM] | TGI (HCT-116 colon) [µM] | TGI (MDA-MB-231 breast) [µM] | TGI (NCI-H23 lung) [µM] | TGI (OVCAR-8 ovarian) [µM] | TGI (SF-539 CNS) [µM] | TGI (SK-MEL-28 melanoma) [µM] | TGI (SW-620 colon) [µM] | TGI (U251 CNS) [µM] | TGI (UACC-257 melanoma) [µM] | TGI (BT-549 breast) [µM] | GI50 (MDA-MB-231 breast) [µM] | GI50 (NCI-H23 lung) [µM] | GI50 (SF-539 CNS) [µM] | GI50 (SK-MEL-28 melanoma) [µM] | GI50 (UACC-257 melanoma) [µM]
CCOC(=O)C(Cc1ccc2c(c1)CCC2)(Cc1ccc2c(c1)CCC2)C(=O)OCC | > 100 | > 100 | > 100 | > 100 | > 100 | > 100 | > 100 | > 100 | > 100 | > 100 | – | – | – | – | – | –
COc1ccc(C2CCc3nc4nc(N)nc(N)c4cc3C2)cc1 (stereo not drawn) | > 100 | > 100 | 42 | – | 22.5 | 30.9 | 65 | > 100 | 29.4 | > 100 | 70.6 | – | – | – | – | –
NC(=O)c1cnc2sc3ccccc3n2c1=O | > 100 | > 100 | > 100 | – | > 100 | > 100 | > 100 | > 100 | – | > 100 | > 100 | – | – | – | – | –
Nn1c(CNc2ccc(-c3nnc(Nc4ccc(Cl)cc4)n3N)cc2)nnc1Nc1ccc(Cl)cc1 | > 100 | > 100 | > 100 | > 100 | – | – | > 100 | > 100 | > 100 | > 100 | > 100 | – | – | – | – | –
Cc1nn2c(N)cc(=O)nc2nc1/C=C/c1ccc(N(C)C)cc1 | > 100 | > 100 | > 100 | > 100 | > 100 | – | > 100 | > 100 | > 100 | > 100 | > 100 | – | – | – | – | –
CC1=CC(c2ccccc2)OP1(=O)c1ccccc1 (stereo not drawn) | > 100 | > 100 | – | > 100 | > 100 | > 100 | > 100 | > 100 | > 100 | > 100 | – | – | – | – | – | –
CSc1ccc2c(c1)c(CCN)c(C)n2Cc1ccc(Cl)c(Cl)c1 | – | – | 3.39 | 3.3 | – | 3.04 | 3.17 | – | – | 3.74 | – | 1.69 | 1.73 | 1.6 | 1.67 | 2.03
NCCCNCCSSCc1ccccc1CSSCCNCCCN | > 100 | – | – | > 100 | > 100 | > 100 | > 100 | > 100 | > 100 | > 100 | – | – | – | – | – | –
CSC1=N/C(=C\c2cccs2)C(=O)N1CN1CCOCC1 | > 100 | > 100 | > 100 | > 100 | > 100 | – | > 100 | > 100 | > 100 | – | – | – | – | – | – | –
N#CC12COC3(CCCCC3C1(C#N)C#N)OC2=N (stereo not drawn) | 48.8 | 25.1 | 33.3 | 37.2 | – | 27.5 | 46.8 | > 100 | 45.5 | 34.1 | 30.5 | – | – | – | – | –
O=C(NC(=O)c1cn(CCN2CCNCC2)c(=O)[nH]c1=O)OCc1ccccc1 | > 100 | > 100 | – | > 100 | > 100 | > 100 | – | > 100 | > 100 | – | – | – | – | – | – | –
O=C(CSc1nc2ccc(I)cc2c(=O)n1Cc1ccccc1)N/N=C/c1ccccc1 | > 100 | > 100 | 43.3 | 71.3 | 60.5 | > 100 | > 100 | > 100 | 33.3 | > 100 | – | – | – | – | – | –
CCCS(=O)(=O)O | > 100 | – | > 100 | > 100 | > 100 | > 100 | > 100 | > 100 | > 100 | > 100 | > 100 | – | – | – | – | –
CN(Cc1cnc2nc(N)nc(N)c2n1)c1ccc(C(=O)NC(CCS(=O)(=O)O)C(=O)O)cc1 (stereo not drawn) | > 100 | – | > 100 | > 100 | > 100 | > 100 | > 100 | > 100 | – | > 100 | > 100 | – | – | – | – | –
COc1cc(Cn2c3c(c4c(CN(C)C)c(O)ccc42)C(=O)c2ccccc2C3=O)cc(OC)c1 | 40.4 | 31.1 | 40.7 | 29.1 | 28.3 | 29.8 | 29.2 | 38.5 | 36.8 | 55.7 | – | – | – | – | – | –
C=CCN1CCC(OC(=O)C(O)(/C=C\CC)C2CCCC2)CC1 (stereo not drawn) | > 100 | > 100 | > 100 | > 100 | > 100 | > 100 | > 100 | – | > 100 | > 100 | > 100 | – | – | – | – | –
COc1ccc2c(c1)/C(=C(\C(Cl)=C(\Cl)N1CCCCC1)[N+](=O)[O-])N2 | > 100 | > 100 | > 100 | > 100 | > 100 | – | > 100 | > 100 | > 100 | > 100 | > 100 | – | – | – | – | –
Cc1ccc2nc3c(C(=O)NCCN(C)C)cccc3cc2c1 | 2.78 | 6.71 | – | 4.21 | 4.87 | 10.1 | 6.67 | 5.45 | 11.7 | 4.56 | – | – | – | – | – | –
COc1ccc2c(c1)/C(=C(\C(Cl)=C(Cl)Cl)[N+](=O)[O-])N2 | > 100 | > 100 | > 100 | > 100 | > 100 | – | > 100 | > 100 | > 100 | > 100 | > 100 | – | – | – | – | –
CCN(CC)CCNc1ccc([N+](=O)[O-])c2nc3ccccc3c(N)c12 | 2.51 | 1.5 | 2.4 | 2.03 | > 10 | 1.84 | – | 1.91 | > 10 | 7.37 | 2.38 | – | – | – | – | –
Cc1c2c(c(C)c3c[n+](C)ccc13)Oc1ccccc1O2 | > 100 | > 67.9 | > 69.8 | 40.4 | > 54 | 22.4 | 28.6 | > 52.8 | 22.3 | 25.9 | – | – | – | – | – | –
O=C(Nc1ccc(Cl)cc1)c1cc(S(=O)(=O)Nc2n[nH]c(=O)[nH]2)c(SSc2cc(Cl)c(C(=O)Nc3ccc(Cl)cc3)cc2S(=O)(=O)Nc2n[nH]c(=O)[nH]2)cc1Cl | > 100 | > 100 | > 100 | > 100 | > 100 | – | > 100 | > 100 | > 100 | > 100 | > 100 | – | – | – | – | –
